Laboratory results published in PubChem BioAssay (NCI).
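Briefly, cells in 96-well plates were exposed to five compound concentrations for 48 h, and endpoints were estimated by linear interpolation. At the TGI there is no net growth.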

How the values were obtained:
Experiment in all cases: NCI tumour cell line growth inhibition, 48 h
786-0 renal = test system: 786-0 renal
A498 renal = test system: A498 renal
A549 NSCLC = test system: A549 NSCLC
ACHN renal = test system: ACHN renal
BT-549 breast = test system: BT-549 breast
CAKI-1 renal = test system: CAKI-1 renal
CCRF-CEM leukemia = test system: CCRF-CEM leukemia
COLO 205 colon = test system: COLO 205 colon
DU-145 prostate = test system: DU-145 prostate
EKVX NSCLC = test system: EKVX NSCLC
HCC-2998 colon = test system: HCC-2998 colon
HCT-116 colon = test system: HCT-116 colon
HCT-15 colon = test system: HCT-15 colon
HL-60(TB) leukemia = test system: HL-60(TB) leukemia
HOP-62 NSCLC = test system: HOP-62 NSCLC
HOP-92 NSCLC = test system: HOP-92 NSCLC
HS 578T breast = test system: HS 578T breast
HT29 colon = test system: HT29 colon
IGROV1 ovarian = test system: IGROV1 ovarian
K-562 leukemia = test system: K-562 leukemia
KM12 colon = test system: KM12 colon
LOX IMVI melanoma = test system: LOX IMVI melanoma
M14 melanoma = test system: M14 melanoma
MALME-3M melanoma = test system: MALME-3M melanoma
MCF7 breast = test system: MCF7 breast
MDA-MB-231 breast = test system: MDA-MB-231 breast
MDA-MB-435 = test system: MDA-MB-435
MDA-N = test system: MDA-N
MOLT-4 leukemia = test system: MOLT-4 leukemia
NCI-H226 lung = test system: NCI-H226 lung
NCI-H23 lung = test system: NCI-H23 lung
NCI-H460 lung = test system: NCI-H460 lung
NCI-H522 lung = test system: NCI-H522 lung
NCI/ADR-RES ovarian = test system: NCI/ADR-RES ovarian
OVCAR-3 ovarian = test system: OVCAR-3 ovarian
OVCAR-4 ovarian = test system: OVCAR-4 ovarian
OVCAR-5 ovarian = test system: OVCAR-5 ovarian
OVCAR-8 ovarian = test system: OVCAR-8 ovarian
PC-3 prostate = test system: PC-3 prostate
RPMI-8226 leukemia = test system: RPMI-8226 leukemia
RXF 393 renal = test system: RXF 393 renal
SF-268 CNS = test system: SF-268 CNS
SF-295 CNS = test system: SF-295 CNS
SF-539 CNS = test system: SF-539 CNS
SK-MEL-2 melanoma = test system: SK-MEL-2 melanoma
SK-MEL-28 melanoma = test system: SK-MEL-28 melanoma
SK-MEL-5 melanoma = test system: SK-MEL-5 melanoma
SK-OV-3 ovarian = test system: SK-OV-3 ovarian
SN12C renal = test system: SN12C renal
SNB-19 CNS = test system: SNB-19 CNS
SR leukemia = test system: SR leukemia
SW-620 colon = test system: SW-620 colon
T-47D breast = test system: T-47D breast
TK-10 renal = test system: TK-10 renal
U251 CNS = test system: U251 CNS
UACC-257 melanoma = test system: UACC-257 melanoma
UACC-62 melanoma = test system: UACC-62 melanoma
UO-31 renal = test system: UO-31 renal
DMS 114 small cell lung = test system: DMS 114 small cell lung
LXFL 529 NSCLC = test system: LXFL 529 NSCLC
M19-MEL melanoma = test system: M19-MEL melanoma
SNB-75 CNS = test system: SNB-75 CNS
SNB-78 CNS = test system: SNB-78 CNS

c1ccc([C@@H]2N[C@@]3(CO[Si](c4ccccc4)(c4ccccc4)c4ccccc4)CC[C@H]4CN[C@@H]2[C@H]43)cc1
TGI (786-0 renal): 25.9 µM | TGI (A498 renal): 30.4 µM | TGI (A549 NSCLC): 26.1 µM | TGI (ACHN renal): 26.6 µM | TGI (BT-549 breast): 35.3 µM | TGI (CAKI-1 renal): 25.4 µM | TGI (CCRF-CEM leukemia): > 100 µM | TGI (COLO 205 colon): 3.14 µM | TGI (DU-145 prostate): 21.8 µM | TGI (EKVX NSCLC): 29.5 µM | TGI (HCC-2998 colon): 3.05 µM | TGI (HCT-116 colon): 11.9 µM | TGI (HCT-15 colon): 10.4 µM | TGI (HL-60(TB) leukemia): 21.3 µM | TGI (HOP-62 NSCLC): 31.2 µM | TGI (HOP-92 NSCLC): 15.9 µM | TGI (HS 578T breast): 36.3 µM | TGI (HT29 colon): 7.17 µM | TGI (IGROV1 ovarian): 26.7 µM | TGI (K-562 leukemia): > 100 µM | TGI (KM12 colon): 12.4 µM | TGI (LOX IMVI melanoma): 24 µM | TGI (M14 melanoma): 17.4 µM | TGI (MALME-3M melanoma): 2.65 µM | TGI (MCF7 breast): 11.5 µM | TGI (MDA-MB-231 breast): 25.9 µM | TGI (MDA-MB-435): 20.8 µM | TGI (MDA-N): 13.1 µM | TGI (MOLT-4 leukemia): > 100 µM | TGI (NCI-H226 lung): 27.5 µM | TGI (NCI-H23 lung): 30.5 µM | TGI (NCI-H460 lung): 25 µM | TGI (NCI-H522 lung): 16.1 µM | TGI (NCI/ADR-RES ovarian): 32.4 µM | TGI (OVCAR-3 ovarian): 27 µM | TGI (OVCAR-4 ovarian): 29.3 µM | TGI (OVCAR-5 ovarian): 31 µM | TGI (OVCAR-8 ovarian): 28.7 µM | TGI (PC-3 prostate): 21.3 µM | TGI (RPMI-8226 leukemia): 13.8 µM | TGI (RXF 393 renal): 16.9 µM | TGI (SF-268 CNS): 22.6 µM | TGI (SF-295 CNS): 25 µM | TGI (SF-539 CNS): 28.6 µM | TGI (SK-MEL-2 melanoma): 35.3 µM | TGI (SK-MEL-28 melanoma): 35.6 µM | TGI (SK-MEL-5 melanoma): 19.2 µM | TGI (SK-OV-3 ovarian): 30.3 µM | TGI (SN12C renal): 27.1 µM | TGI (SNB-19 CNS): 31.5 µM | TGI (SR leukemia): > 100 µM | TGI (SW-620 colon): 11.7 µM | TGI (T-47D breast): 16.7 µM | TGI (TK-10 renal): 30.5 µM | TGI (U251 CNS): 30.9 µM | TGI (UACC-257 melanoma): 27.5 µM | TGI (UACC-62 melanoma): 28.2 µM | TGI (UO-31 renal): 22.8 µM

CCN(CC)CCN=Cc1c(O)c(O)c(C(C)C)c2cc(C)c(-c3c(C)cc4c(C(C)C)c(O)c(O)c(C=NCCN(CC)CC)c4c3O)c(O)c12
TGI (ACHN renal): 8.37 µM | TGI (CCRF-CEM leukemia): 1.45 µM | TGI (COLO 205 colon): 14.5 µM | TGI (DMS 114 small cell lung): 3.76 µM | TGI (HCC-2998 colon): 9.62 µM | TGI (HCT-116 colon): 6.02 µM | TGI (HOP-62 NSCLC): 8.13 µM | TGI (HOP-92 NSCLC): 7.96 µM | TGI (HT29 colon): 3.83 µM | TGI (IGROV1 ovarian): 12.5 µM | TGI (K-562 leukemia): 3 µM | TGI (KM12 colon): 3.92 µM | TGI (LXFL 529 NSCLC): 3.11 µM | TGI (M14 melanoma): 4.06 µM | TGI (M19-MEL melanoma): 14.1 µM | TGI (MALME-3M melanoma): 17 µM | TGI (MOLT-4 leukemia): 4.36 µM | TGI (NCI-H23 lung): 8.04 µM | TGI (NCI-H460 lung): 13.7 µM | TGI (NCI-H522 lung): 3.4 µM | TGI (OVCAR-3 ovarian): 4.61 µM | TGI (OVCAR-4 ovarian): 10.1 µM | TGI (RPMI-8226 leukemia): 6.16 µM | TGI (RXF 393 renal): 5.31 µM | TGI (SF-268 CNS): 34.6 µM | TGI (SF-295 CNS): 4.45 µM | TGI (SF-539 CNS): 5.65 µM | TGI (SK-MEL-2 melanoma): 5.17 µM | TGI (SK-MEL-28 melanoma): 12.5 µM | TGI (SK-OV-3 ovarian): 12.4 µM | TGI (SNB-19 CNS): 8.86 µM | TGI (SNB-75 CNS): 22.6 µM | TGI (SNB-78 CNS): 5.6 µM | TGI (UACC-257 melanoma): 18.8 µM | TGI (UACC-62 melanoma): 6.03 µM | TGI (UO-31 renal): 8.8 µM
